# Read-outs that look alike come from different tables or passages of the source.
# What was measured:
# KRAS G12V = KRAS G12V (Homo sapiens (Human), UniProt P01116+P62937, G12V); experiment: Ras-Raf (BRAF RBD) disruption / FRET / MOA assay, KRAS G12V; assay type: biochemical; details: read-out: IC50* KRAS G12V FRET data
# In short: (§1)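 Compound-driven ternary complex of nucleotide-loaded Ras with cyclophilin A, disrupting BRAF RBD binding. 10-point 3-fold dilution from 30 μM final, 3 h at 25° C, then anti-His Eu-W1024 (10 nM) and anti-GST allophycocyanin (50 nM) for 1.5 h. IC50 from TR-FRET ratio decrease versus DMSO.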
# NRAS G12C = NRAS G12C (Homo sapiens (Human), UniProt P01111+P62937, G12C); experiment: Ras-Raf (BRAF RBD) disruption / FRET / MOA assay, NRAS G12C; assay type: biochemical
# Chain of NRAS G12C (P01111 whole entry G12C): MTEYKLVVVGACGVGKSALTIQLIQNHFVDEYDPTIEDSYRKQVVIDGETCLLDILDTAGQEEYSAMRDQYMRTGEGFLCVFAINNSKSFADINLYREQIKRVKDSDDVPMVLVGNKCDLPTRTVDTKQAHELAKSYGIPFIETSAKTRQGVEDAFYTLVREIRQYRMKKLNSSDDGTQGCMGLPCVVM
# Chain of NRAS G12C (P62937 whole entry): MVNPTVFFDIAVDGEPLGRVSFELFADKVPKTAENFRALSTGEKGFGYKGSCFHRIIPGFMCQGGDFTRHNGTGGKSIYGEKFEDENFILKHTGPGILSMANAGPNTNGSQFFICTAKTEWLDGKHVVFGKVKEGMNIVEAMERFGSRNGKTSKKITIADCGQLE
# In short: as §1
# K-Ras G13C = K-Ras G13C (Homo sapiens (Human), UniProt P01116+P62937, G13C); experiment: Ras-Raf (BRAF RBD) disruption / FRET / MOA assay, KRAS G13C; assay type: biochemical; details: KRAS G13C; Ras-Raf disruption/FRET/MOA assay; read-out: IC50* KRAS G13C FRET data
# Chain of K-Ras G13C (P01116-2 other isoform, or with tags, fused parts or gaps G13C): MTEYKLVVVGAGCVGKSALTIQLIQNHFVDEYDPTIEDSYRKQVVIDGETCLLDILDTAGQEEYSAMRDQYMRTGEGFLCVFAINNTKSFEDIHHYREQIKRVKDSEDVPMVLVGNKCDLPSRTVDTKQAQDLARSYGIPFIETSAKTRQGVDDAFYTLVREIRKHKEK
# Chain of K-Ras G13C (P62937 whole entry): as the sequence (P62937 whole entry) above
# In short: as §1
# NRAS Q61R = NRAS Q61R (Homo sapiens (Human), UniProt P01111+P62937, Q61R); experiment: Ras-Raf (BRAF RBD) disruption / FRET / MOA assay, NRAS Q61R; assay type: biochemical
# Chain of NRAS Q61R (P01111 whole entry Q61R): as the sequence (P01111 whole entry G12C) above, with C12G, Q61R counted along it
# Chain of NRAS Q61R (P62937 whole entry): as the sequence (P62937 whole entry) above
# In short: (§2)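 Compounds (30 μM top final, 10-point 3-fold dilutions) incubated 3 h at 25° C with nucleotide-loaded Ras, cyclophilin A and BRAF RBD. Detection with 10 nM anti-His Eu-W1024 and 50 nM anti-GST allophycocyanin over another 1.5 h. Lowered TR-FRET ratio relative to DMSO wells gives IC50.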
# KRAS G12D = KRAS G12D (Homo sapiens (Human), UniProt P01116+P62937, G12D); experiment: Ras-Raf (BRAF RBD) disruption / FRET / MOA assay, KRAS G12D; assay type: biochemical; details: Ras-Raf disruption/FRET/MOA assay; class symbols; read-out: KRAS G12D FRET data IC50
# Chain of KRAS G12D (P01116-2 other isoform, or with tags, fused parts or gaps G12D): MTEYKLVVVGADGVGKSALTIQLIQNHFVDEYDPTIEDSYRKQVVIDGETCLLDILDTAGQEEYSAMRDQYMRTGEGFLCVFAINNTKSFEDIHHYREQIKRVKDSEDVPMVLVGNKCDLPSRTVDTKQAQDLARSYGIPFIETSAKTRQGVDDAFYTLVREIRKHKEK
# Chain of KRAS G12D (P62937 whole entry): as the sequence (P62937 whole entry) above
# In short: as §1
# NRAS Q61K = NRAS Q61K (Homo sapiens (Human), UniProt P01111+P62937, Q61K); experiment: Ras-Raf (BRAF RBD) disruption / FRET / MOA assay, NRAS Q61K; assay type: biochemical
# Chain of NRAS Q61K (P01111 whole entry Q61K): as the sequence (P01111 whole entry G12C) above, with C12G, Q61K counted along it
# Chain of NRAS Q61K (P62937 whole entry): as the sequence (P62937 whole entry) above
# In short: as §2
# K-Ras G12C = K-Ras G12C (Homo sapiens (Human), UniProt P01116+P62937, G12C); experiment: Ras-Raf (BRAF RBD) disruption / FRET / MOA assay, KRAS G12C; assay type: biochemical; details: KRAS G12C, Ras-Raf disruption/FRET/MOA assay
# Chain of K-Ras G12C (P01116-2 other isoform, or with tags, fused parts or gaps G12C): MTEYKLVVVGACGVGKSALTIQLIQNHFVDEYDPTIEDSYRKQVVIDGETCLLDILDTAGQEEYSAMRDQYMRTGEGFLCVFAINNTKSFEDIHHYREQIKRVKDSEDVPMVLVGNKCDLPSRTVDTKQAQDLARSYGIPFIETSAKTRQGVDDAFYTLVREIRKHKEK
# Chain of K-Ras G12C (P62937 whole entry): as the sequence (P62937 whole entry) above
# In short: as §1
# NCI-H358 (K-Ras G12C) = experiment: CellTiter-Glo cell viability assay, NCI-H358; assay type: cell-based, human; details: Homo sapiens, NCI-H358, 120 h, class symbols
# In short: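 Viability measured by CellTiter-Glo luminescence on day 5 following direct addition of compound to plated cells. Values expressed as percent of mean DMSO signal; curves fitted with a four-parameter logistic model.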
# KRAS G12S = KRAS G12S (Homo sapiens (Human), UniProt P01116+P62937, G12S); experiment: Ras-Raf (BRAF RBD) disruption / FRET / MOA assay, KRAS G12S; assay type: biochemical; details: Ras-Raf disruption/FRET/MOA assay; class symbols; read-out: KRAS G12S FRET data IC50
# Chain of KRAS G12S (P01116-2 other isoform, or with tags, fused parts or gaps G12S): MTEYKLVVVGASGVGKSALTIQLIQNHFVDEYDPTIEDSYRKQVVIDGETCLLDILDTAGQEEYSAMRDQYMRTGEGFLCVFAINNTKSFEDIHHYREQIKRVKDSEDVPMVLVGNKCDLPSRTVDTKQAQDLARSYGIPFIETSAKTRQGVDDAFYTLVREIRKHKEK
# Chain of KRAS G12S (P62937 whole entry): as the sequence (P62937 whole entry) above
# In short: as §1
# KRAS Q61H = KRAS Q61H (Homo sapiens (Human), UniProt P01116+P62937, Q61H); experiment: Ras-Raf (BRAF RBD) disruption / FRET / MOA assay, KRAS Q61H; assay type: biochemical; details: class symbols
# Chain of KRAS Q61H (P01116-2 other isoform, or with tags, fused parts or gaps Q61H): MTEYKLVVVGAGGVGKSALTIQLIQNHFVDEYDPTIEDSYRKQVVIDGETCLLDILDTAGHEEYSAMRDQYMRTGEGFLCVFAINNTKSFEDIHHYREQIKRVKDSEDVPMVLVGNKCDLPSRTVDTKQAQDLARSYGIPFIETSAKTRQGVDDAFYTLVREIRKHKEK
# Chain of KRAS Q61H (P62937 whole entry): as the sequence (P62937 whole entry) above
# In short: as §2
# KRAS WT = KRAS WT (Homo sapiens (Human), UniProt P01116+P62937); experiment: Ras-Raf (BRAF RBD) disruption / FRET / MOA assay, KRAS WT; assay type: biochemical; details: read-out: IC50* KRAS WT FRET data
# Chain of KRAS WT (P01116-2 other isoform, or with tags, fused parts or gaps): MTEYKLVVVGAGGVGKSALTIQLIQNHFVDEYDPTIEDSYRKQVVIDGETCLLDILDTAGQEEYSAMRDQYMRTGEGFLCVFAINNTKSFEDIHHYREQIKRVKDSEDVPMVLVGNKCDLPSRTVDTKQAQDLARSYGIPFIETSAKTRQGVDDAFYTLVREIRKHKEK
# Chain of KRAS WT (P62937 whole entry): as the sequence (P62937 whole entry) above
# In short: as §1
# KRAS G13D = KRAS G13D (Homo sapiens (Human), UniProt P01116+P62937, G13D); experiment: Ras-Raf (BRAF RBD) disruption / FRET / MOA assay, KRAS G13D; assay type: biochemical
# Chain of KRAS G13D (P01116-2 other isoform, or with tags, fused parts or gaps G13D): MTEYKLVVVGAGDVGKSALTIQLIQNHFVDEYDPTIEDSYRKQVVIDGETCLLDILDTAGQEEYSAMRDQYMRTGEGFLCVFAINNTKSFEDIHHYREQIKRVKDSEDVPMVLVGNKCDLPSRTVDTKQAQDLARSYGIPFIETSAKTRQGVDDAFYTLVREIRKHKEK
# Chain of KRAS G13D (P62937 whole entry): as the sequence (P62937 whole entry) above
# In short: as §1
# [1] = read-out: IC50* NRAS G12C FRET data
# [2] = NRAS Q61R, Ras-Raf disruption/FRET/MOA assay, read-out: IC50* NRAS Q61R FRET data
# [3] = NRAS Q61K, Ras-Raf disruption/FRET/MOA assay, read-out: IC50* NRAS Q61K FRET data
# [4] = read-out: IC50* KRAS G12C FRET data
# [5] = NCI-H358, 5-day treatment, read-out: Additional H358 Cell Viability assay data (K-Ras G12C, IC50)
# [6] = Ras-Raf disruption/FRET/MOA assay, read-out: KRAS Q61H FRET data IC50
# [7] = read-out: IC50* KRAS G13D FRET data
# Chain of KRAS G12V (P01116-2 other isoform, or with tags, fused parts or gaps G12V): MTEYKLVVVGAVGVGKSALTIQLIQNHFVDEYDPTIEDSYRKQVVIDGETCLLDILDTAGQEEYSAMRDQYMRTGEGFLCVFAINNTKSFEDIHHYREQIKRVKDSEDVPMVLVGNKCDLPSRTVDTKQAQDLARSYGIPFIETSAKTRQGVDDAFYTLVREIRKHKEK
# Chain of KRAS G12V (P62937 whole entry): as the sequence (P62937 whole entry) above
SMILES,IC50 (KRAS G12V),IC50 (NRAS G12C; IC50* NRAS G12C FRET data),IC50 (K-Ras G13C),IC50 (NRAS Q61R),IC50 (KRAS G12D),IC50 (NRAS Q61K),IC50 (K-Ras G12C; IC50* KRAS G12C FRET data),"IC50 (NCI-H358 (K-Ras G12C); read-out: Additional H358 Cell Viability assay data (K-Ras G12C, IC50, uM), NCI-H358, 5-day treatment)",IC50 (KRAS G12S),"IC50 (KRAS Q61H; KRAS Q61H FRET data IC50, Ras-Raf disruption/FRET/MOA assay)",IC50 (KRAS WT),IC50 (KRAS G13D; IC50* KRAS G13D FRET data),IC50 (NRAS G12C; [1]),IC50 (NRAS Q61R; [2]),IC50 (NRAS Q61K; [3]),IC50 (K-Ras G12C; [4]),IC50 (NCI-H358 (K-Ras G12C); [5]),IC50 (KRAS Q61H; [6]),IC50 (KRAS G13D; [7])
"CCn1c(-c2cccnc2[C@H](C)OC)c2c3cc(ccc31)-c1cccc(c1)C[C@H](NC(=O)[C@H](C(C)C)N1CC[C@@]3(CCN(C(=O)C#C[C@@H]4COCCN4C)C3)C1=O)C(=O)N1CCC[C@H](N1)C(=O)OCC(C)(C)C2 (atropisomer, axis not shown) [Example A549]",1000 to 10000 nM,10 to 100 nM,100 to 1000 nM,1000 to 10000 nM,> 10000 nM,1000 to 10000 nM,< 10 nM,< 0.01 µM,1000 to 10000 nM,100 to 1000 nM,1000 to 10000 nM,1000 to 10000 nM,–,–,–,–,–,–,–
C=CC(=O)N1CCO[C@H]2CN(C(=O)N(C)[C@H](C(=O)N[C@H]3C[C@H]4CN(CCO4)c4ccc5c(c4)c(c(-c4cccnc4[C@H](C)OC)n5CC)CC(C)(C)COC(=O)[C@@H]4CCCN(N4)C3=O)C(C)C)C[C@H]21 [Example A562],1000 to 10000 nM,–,100 to 1000 nM,–,1000 to 10000 nM,–,–,–,1000 to 10000 nM,–,1000 to 10000 nM,–,100 to 1000 nM,> 10000 nM,1000 to 10000 nM,100 to 1000 nM,0.1 to 1 µM,1000 to 10000 nM,1000 to 10000 nM
"CCn1c(-c2cccnc2[C@H](C)OC)c2c3cc(ccc31)-c1cc(CF)cc(c1)C[C@H](NC(=O)[C@H](C(C)C)N1CC[C@]3(CCN(C(=O)C#CC(C)(C)N(C)C)C3)C1=O)C(=O)N1CCC[C@H](N1)C(=O)OCC(C)(C)C2 (atropisomer, axis not shown) [Example A673]",100 to 1000 nM,–,100 to 1000 nM,–,1000 to 10000 nM,–,–,–,1000 to 10000 nM,–,1000 to 10000 nM,–,< 10 nM,1000 to 10000 nM,1000 to 10000 nM,< 10 nM,< 0.01 µM,100 to 1000 nM,1000 to 10000 nM
"CO[C@@H](C)c1ncccc1-c1c2c3cc(ccc3n1CC(F)(F)F)-c1cccc(c1)C[C@H](NC(=O)[C@H](C(C)C)N1CC[C@]3(CCN(C(=O)C#CC(C)(C)N(C)C)C3)C1=O)C(=O)N1CCC[C@H](N1)C(=O)OCC(C)(C)C2 (atropisomer, axis not shown) [Example A689]",1000 to 10000 nM,–,100 to 1000 nM,–,1000 to 10000 nM,–,–,–,100 to 1000 nM,–,1000 to 10000 nM,–,< 10 nM,1000 to 10000 nM,1000 to 10000 nM,< 10 nM,< 0.01 µM,100 to 1000 nM,1000 to 10000 nM
CCn1c(-c2cccnc2)c2c3cc(ccc31)-c1csc(c1)C[C@H](NC(=O)[C@H](C(C)C)N(C)C(=O)[C@H]1CCN(C(=O)C#CCN3CCOCC3)C1)C(=O)N1CCC[C@H](N1)C(=O)OCC(C)(C)C2 [Example A205],> 10000 nM,–,> 10000 nM,–,> 10000 nM,–,–,–,> 10000 nM,–,> 10000 nM,–,1000 to 10000 nM,> 10000 nM,> 10000 nM,100 to 1000 nM,0.1 to 1 µM,> 10000 nM,> 10000 nM
"C=CC(=O)N1CC(N(C)C(=O)N(C)[C@H](C(=O)N[C@H]2Cc3nc(cs3)-c3ccc4c(c3)c(c(-c3cccnc3[C@H](C)OC)n4CC(F)(F)F)CC(C)(C)COC(=O)[C@@H]3CCCN(N3)C2=O)C(C)C)C1 (atropisomer, axis not shown) [Example A711]",100 to 1000 nM,–,10 to 100 nM,–,100 to 1000 nM,–,–,–,100 to 1000 nM,–,10 to 100 nM,–,< 10 nM,100 to 1000 nM,10 to 100 nM,< 10 nM,< 0.01 µM,10 to 100 nM,100 to 1000 nM

# From patent publication US11566007B2, “Ras inhibitors” (Revolution Medicines, Inc., priority 2019, dated 2023)
